In patent publication US9451771B2, “Compositions and methods to attract the brown marmorated stink bug (BMSB), Halyomorpha halys” (United States of America as Represented by the Secretary of …, priority 2012, dated 2016):

System: brown marmorated stink bug (BMSB), Halyomorpha halys
Assay: Field trials of experimental pheromone constituents, baited black pyramid traps
Assay type: in vivo
Conditions: for field attractiveness to BMSB (in words): 2011-2012 field trapping
Description: Field Bioassays. Field Trials of Experimental Pheromone Constituents: Pyramid traps based on dimensions previously used for native stink bugs (Leskey and Hogmire 2005, Hogmire and Leskey 2006) and for brown marmorated stink bugs (Leskey et al. 2012c) were used for all trials. […] Each panel was 1.22 m high, 52 cm wide at the base, and 7 cm wide at the top. Collection jars were constructed based on previously published dimensions (Hogmire and Leskey 2006) with internal cone opening of 1.6 cm with trimmed wire edging to reduce escape. In addition, a Hercon Vaportape™ II (Hercon Environmental, Emigsville, Pa.) was added as a killing agent to prevent escape from traps. In a preliminary study, addition of a killing agent increased trap captures ˜250%. Traps were deployed ˜5 meters from the border of apple and pear orchards at the Appalachian Fruit Research Station or in the border area between wood lots and row crops in Kearneysville, W. Va., Shepherdstown, W. Va., Keedysville, Md., and Beltsville, Md. Traps were spaced ˜50 meters apart. Traps were baited with compounds identified from headspace collections of male BMSB, synthesized and formulated into gray rubber septa or left unbaited.
Fourteen trials were conducted between 19 Apr. to 20 Oct. 2011 (Table 3) and four trials between 20 Mar. to 10 Oct. 2012 (Table 4). Traps were checked a minimum of twice weekly and the treatments were re-randomized at each collection.
All adults and nymphs were removed from traps and recorded. Hercon Vaportape™ strips were changed at four week intervals and lures were changed at two week intervals. Comparisons of adult and nymphal captures used the SAS GLM procedure to evaluate effect of treatment and replicate followed by Tukey's HSD if the model was significant. Appropriate transformations were used to stabilize normality if needed. The effect of sex was dropped from all models because it was never a significant factor.

[1] = AFRS 2011, Trial Eight, 11 August-6 Sept.
[2] = AFRS 2011, Trial One, 19 April-10 May
[3] = Beltsville 2011, Trial Eight, 11 August-6 Sept.
[4] = Beltsville 2011, Trial One, 19 April-10 May
[5] = AFRS 2012, Trial Two, 31 July-14 August
[6] = Beltsville 2012, Trial Two, 1-14 August
[7] = AFRS 2012, Trial Four, 22 September-10 October
[8] = Beltsville 2012, Trial Four, 17 September-2 October
[9] = AFRS 2012, Trial Three, 14 August-13 September
[10] = Beltsville 2012, Trial Three, 14 August-11 September

| Compound | field attractiveness to BMSB (in words) | Mean number BMSB adults (±SE) captured [5] [bc per treatment] | Mean number BMSB nymphs (±SE) captured [5] [ab per treatment] | Mean number BMSB adults (±SE) captured [6] [ab per treatment] | Mean number BMSB nymphs (±SE) captured [6] [per treatment] | Mean number BMSB adults (±SE) captured [7] | Mean number BMSB nymphs (±SE) captured [7] [per treatment] | Mean number BMSB adults (±SE) captured [8] [a per treatment] | Mean number BMSB nymphs (±SE) captured [8] [per treatment] | Mean number BMSB adults (±SE) captured [9] | Mean number BMSB nymphs (±SE) captured [9] | Mean number BMSB adults (±SE) captured [10] | Mean number BMSB nymphs (±SE) captured [10] | also measured |
| --- | --- | --- | --- | --- | --- | --- | --- | --- | --- | --- | --- | --- | --- | --- |
| CC1=C[C@H](O)[C@@H]([C@@H](C)CC[C@@H]2OC2(C)C)CC1 [Lure #1, (3R,6R,7S,10S)-10,11-epoxy-1-bisabolen-3-ol] | inactive | – | – | – | – | – | – | – | – | – | – | – | – | Mean number BMSB adults (±SE) captured [1]: 3.08 ± 0.55b per trap per sample; Mean number BMSB nymphs (±SE) captured [1]: 14.63 ± 6.06 per trap per sample; Mean number BMSB adults (±SE) captured [2]: 0.03 ± 0.03 per trap per sample; Mean number BMSB nymphs (±SE) captured [2]: 0.00 ± 0.00 per trap per sample; Mean number BMSB adults (±SE) captured [3]: 0.55 ± 0.13ab per treatment; Mean number BMSB nymphs (±SE) captured [3]: 3.49 ± 0.67 per treatment; Mean number BMSB adults (±SE) captured [4]: 0.00 ± 0.20b per treatment; Mean number BMSB nymphs (±SE) captured [4]: 0.00 ± 0.00 per treatment |
| C[C@H](CC[C@@H]1OC1(C)C)[C@@H]1C=C[C@](C)(O)CC1 [Lure #17, (3R,6R,7R,10S)-10,11-epoxy-1-bisabolen-3-ol] | – | 0.40 ± 0.40 | 7.15 ± 2.65 | 0.20 ± 0.12 | 20.30 ± 8.61 | – | – | – | – | – | – | – | – | – |
| C[C@H](CC[C@@H]1OC1(C)C)[C@H]1C=C[C@](C)(O)CC1 [Lure #18, (3R,6S,7R,10S)-10,11-epoxy-1-bisabolen-3-ol] | moderately attractive | 0.90 ± 0.38 | 6.50 ± 2.08 | 0.35 ± 0.13 | 23.45 ± 9.95 | 2.48 ± 0.70abc per treatment | 0.60 ± 0.37 | 4.15 ± 1.17 | 0.05 ± 0.05 | – | – | – | – | – |
| C[C@H](CC[C@@H]1OC1(C)C)[C@H]1C=C[C@@](C)(O)CC1 [Lure #22, (3S,6S,7R,10S)-10,11-epoxy-1-bisabolen-3-ol] | more attractive than #23 | – | – | – | – | 1.36 ± 0.59bc per treatment | 0.80 ± 0.57 | 5.05 ± 1.01 | 0.15 ± 0.11 | 2.73 ± 0.50d per treatment | 7.30 ± 2.02bc per treatment | 2.65 ± 0.44a per treatment | 21.90 ± 6.49ab per treatment | field attractiveness to BMSB (in words) (listed as stereoisomer 1): attracted BMSB females, males, and nymphs |
| C[C@H](CC[C@H]1OC1(C)C)[C@@H]1C=C[C@](C)(O)CC1 [Lure #23, (3R,6R,7R,10R)-10,11-epoxy-1-bisabolen-3-ol] | not attractive | – | – | – | – | – | – | – | – | 0.75 ± 0.29e per treatment | 2.50 ± 0.53c per treatment | 0.90 ± 0.26b per treatment | 8.38 ± 2.90bc per treatment | – |
